Source: patent publication US10150764B2, “Substituted benzene compounds” (Epizyme, Inc., priority 2013, dated 2018)
Structures can show the parent of a compound that is named as a salt.

What was measured:
[1] = target: wild-type EZH2 (PRC2 enzyme) (Homo sapiens (Human), UniProt Q15910); experiment: PRC2 enzyme assay on peptide substrate, wild-type EZH2 (H3K27me0 peptide, 3H-SAM Flashplate); format: biochemical; conditions: wild-type PRC2 4 nM, read-out: WT EZH2 IC50
Experimental: (§1) Human PRC2 enzymes were purified as 4-component enzyme complexes co-expressed in Spodoptera frugiperda (sf9) cells using a baculovirus expression system. […] The EED subunit contained an N-terminal FLAG tag that was used to purify the entire 4-component complex from sf9 cell lysates.
(§2) The assays were all performed in a buffer consisting of 20 mM bicine (pH=7.6), 0.5 mM DTT, 0.005% BSG and 0.002% Tween20, prepared on the day of use. […] DMSO (1 μL) was added to columns 11, 12, 23, 24, rows A-H for the maximum signal control, and SAH, a known product and inhibitor of PRC2 (1 μL) was added to columns 11, 12, 23, 24, rows I-P for the minimum signal control. A cocktail (40 μL) containing the wild-type PRC2 enzyme and H3K27me0 peptide or any of the Y641 mutant enzymes and H3K27me2 peptide was added by Multidrop Combi (Thermo). The compounds were allowed to incubate with PRC2 for 30 min at 25° C., then a cocktail (10 μL) containing a mixture of non-radioactive and ^3H-SAM was added to initiate the reaction (final volume=51 μL). […] The assays were stopped by the addition of non-radioactive SAM (10 μL) to a final concentration of 600 μM, which dilutes the ^3H-SAM to a level where its incorporation into the peptide substrate is no longer detectable. 50 of the reaction in the 384-well polypropylene plate was then transferred to a 384-well Flashplate and the biotinylated peptides were allowed to bind to the streptavidin surface for at least 1 h before being washed three times with 0.1% Tween20 in a Biotek ELx405 plate washer. The plates were then read in a PerkinElmer TopCount platereader to measure the quantity of ^3H-labeled peptide bound to the Flashplate surface, measured as disintegrations per minute (dpm) or alternatively, referred to as counts per minute (cpm).

[2] = target: EZH2 Y641F mutant (PRC2 enzyme) (Homo sapiens (Human), UniProt Q15910, Y641F); experiment: PRC2 enzyme assay on peptide substrate, EZH2 Y641F mutant (H3K27me2 peptide, 3H-SAM Flashplate); format: biochemical; conditions: Y641F mutant PRC2 4 nM
Sequence of EZH2 Y641F mutant (PRC2 enzyme) (Q15910 whole entry Y641F): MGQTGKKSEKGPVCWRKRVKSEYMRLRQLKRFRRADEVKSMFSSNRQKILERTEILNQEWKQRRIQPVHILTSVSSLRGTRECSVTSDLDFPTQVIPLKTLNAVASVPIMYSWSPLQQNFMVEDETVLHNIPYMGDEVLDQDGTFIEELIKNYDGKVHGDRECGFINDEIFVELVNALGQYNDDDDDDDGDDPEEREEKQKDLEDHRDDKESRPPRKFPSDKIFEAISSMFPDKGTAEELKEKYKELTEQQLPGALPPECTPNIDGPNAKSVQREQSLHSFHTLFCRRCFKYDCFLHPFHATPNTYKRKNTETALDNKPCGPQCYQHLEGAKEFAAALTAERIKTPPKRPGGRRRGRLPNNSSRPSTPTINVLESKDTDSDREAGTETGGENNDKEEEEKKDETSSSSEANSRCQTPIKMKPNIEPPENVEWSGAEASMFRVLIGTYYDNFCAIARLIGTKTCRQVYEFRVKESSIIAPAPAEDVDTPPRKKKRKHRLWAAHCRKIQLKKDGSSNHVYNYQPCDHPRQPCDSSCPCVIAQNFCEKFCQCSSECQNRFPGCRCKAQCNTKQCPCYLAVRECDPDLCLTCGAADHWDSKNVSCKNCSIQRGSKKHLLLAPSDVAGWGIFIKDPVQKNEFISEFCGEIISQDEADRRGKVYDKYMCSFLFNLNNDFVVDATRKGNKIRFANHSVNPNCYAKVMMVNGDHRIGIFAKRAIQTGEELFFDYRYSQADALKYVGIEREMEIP
Sequence of EZH2 Y641F mutant (PRC2 enzyme) (O75530 whole entry partner): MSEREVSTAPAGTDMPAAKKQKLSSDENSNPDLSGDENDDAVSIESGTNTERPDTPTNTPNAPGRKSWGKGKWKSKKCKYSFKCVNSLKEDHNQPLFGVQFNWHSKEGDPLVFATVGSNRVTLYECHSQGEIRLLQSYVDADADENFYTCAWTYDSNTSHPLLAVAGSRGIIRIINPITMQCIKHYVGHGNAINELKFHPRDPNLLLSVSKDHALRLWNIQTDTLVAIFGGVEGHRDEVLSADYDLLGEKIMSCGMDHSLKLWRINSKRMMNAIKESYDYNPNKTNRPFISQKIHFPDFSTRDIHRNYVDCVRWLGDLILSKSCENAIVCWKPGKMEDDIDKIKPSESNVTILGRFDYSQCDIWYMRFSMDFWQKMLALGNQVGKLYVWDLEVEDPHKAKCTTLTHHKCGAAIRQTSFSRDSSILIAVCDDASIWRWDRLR
Sequence of EZH2 Y641F mutant (PRC2 enzyme) (Q15022 whole entry partner): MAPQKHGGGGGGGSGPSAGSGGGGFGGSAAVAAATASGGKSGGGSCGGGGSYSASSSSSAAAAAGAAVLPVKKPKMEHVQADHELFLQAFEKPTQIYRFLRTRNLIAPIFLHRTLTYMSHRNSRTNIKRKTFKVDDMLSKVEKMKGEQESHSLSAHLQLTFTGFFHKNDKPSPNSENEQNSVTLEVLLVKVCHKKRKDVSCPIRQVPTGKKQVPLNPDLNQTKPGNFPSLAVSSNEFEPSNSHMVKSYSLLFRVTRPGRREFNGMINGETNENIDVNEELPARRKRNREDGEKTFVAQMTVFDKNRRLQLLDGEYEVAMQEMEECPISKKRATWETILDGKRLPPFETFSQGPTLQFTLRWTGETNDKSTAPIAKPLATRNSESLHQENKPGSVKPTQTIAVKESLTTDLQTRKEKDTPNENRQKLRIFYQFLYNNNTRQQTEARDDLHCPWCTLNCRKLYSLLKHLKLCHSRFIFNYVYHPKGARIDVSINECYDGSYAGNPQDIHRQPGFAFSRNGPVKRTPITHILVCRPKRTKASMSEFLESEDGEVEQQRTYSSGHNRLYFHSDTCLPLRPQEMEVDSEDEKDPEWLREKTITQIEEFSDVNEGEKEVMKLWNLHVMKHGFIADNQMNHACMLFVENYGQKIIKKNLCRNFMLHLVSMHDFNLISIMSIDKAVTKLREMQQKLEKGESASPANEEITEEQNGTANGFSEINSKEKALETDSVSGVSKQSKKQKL
Sequence of EZH2 Y641F mutant (PRC2 enzyme) (Q09028 whole entry partner): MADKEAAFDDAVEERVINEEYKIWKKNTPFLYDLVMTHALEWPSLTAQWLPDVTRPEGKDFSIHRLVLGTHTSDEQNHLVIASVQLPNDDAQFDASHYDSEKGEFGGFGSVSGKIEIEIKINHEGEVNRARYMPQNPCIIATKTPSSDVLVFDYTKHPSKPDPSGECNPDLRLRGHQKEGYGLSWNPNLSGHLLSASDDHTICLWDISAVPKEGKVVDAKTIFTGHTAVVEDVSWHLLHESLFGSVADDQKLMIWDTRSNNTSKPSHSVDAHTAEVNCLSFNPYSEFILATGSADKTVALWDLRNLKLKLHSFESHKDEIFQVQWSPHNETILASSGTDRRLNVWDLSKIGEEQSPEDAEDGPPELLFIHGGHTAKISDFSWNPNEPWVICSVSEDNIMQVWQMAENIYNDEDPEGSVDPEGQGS
Experimental: as §1, §2

Sequence of wild-type EZH2 (PRC2 enzyme) (Q15910 whole entry): as the sequence (Q15910 whole entry Y641F) above, with F641Y counted along it
Sequence of wild-type EZH2 (PRC2 enzyme) (O75530 whole entry partner): as the sequence (O75530 whole entry partner) above
Sequence of wild-type EZH2 (PRC2 enzyme) (Q15022 whole entry partner): as the sequence (Q15022 whole entry partner) above
Sequence of wild-type EZH2 (PRC2 enzyme) (Q09028 whole entry partner): as the sequence (Q09028 whole entry partner) above

Row | Structure (SMILES) | IC50 [1] | IC50 [2]
1 | CCO[C@@H]1COC[C@H]1N(CC)c1cc(Cl)cc(C(=O)NCc2c(C)[nH]n(C)c2=O)c1C (relative stereo) [Compound 43, 5-chloro-N-((2,5-dimethyl-3-oxo-2,3-dihydro-1H-pyrazol-4-yl)methyl)-3-(((trans)-4-ethoxytetrahydrofuran-3-yl)(ethyl)amino)-2-methylbenzamide] | > 50 µM | > 50000 nM
2 | CCN(c1cc(Cl)cc(C(=O)NCc2c(C)nn(C)c2OC)c1C)[C@@H]1COC[C@H]1OCCOC (relative stereo) [Compound 44, 5-chloro-3-(ethyl((trans)-4-(2-methoxyethoxy)tetrahydrofuran-3-yl)amino)-N-((5-methoxy-1,3-dimethyl-1H-pyrazol-4-yl)methyl)-2-methylbenzamide] | > 50 µM | 
3 | CCN(c1cc(Cl)cc(C(=O)NCc2c(C)[nH]n(C)c2=O)c1C)[C@@H]1COC[C@H]1OCCOC (relative stereo) [Compound 45, 5-chloro-N-((2,5-dimethyl-3-oxo-2,3-dihydro-1H-pyrazol-4-yl)methyl)-3-(ethyl((trans)-4-(2-methoxyethoxy)tetrahydrofuran-3-yl)amino)-2-methylbenzamide] | > 50 µM | > 50000 nM
4 | CCN(c1cc(Cl)cc(C(=O)NCc2c(C)nc3cc[nH]n3c2=O)c1C)[C@H]1CC[C@H](N(C)C)CC1 [Compound 8, 5-chloro-3-(((trans)-4-(dimethylamino)cyclohexyl)(ethyl)amino)-2-methyl-N-((5-methyl-7-oxo-1,7-dihydropyrazolo[1,5-a]pyrimidin-6-yl)methyl)benzamide] | 20 µM | 5820 nM
5 | CCN(c1cc(Cl)cc(C(=O)NCc2c(C)cc3nc(C)[nH]n3c2=O)c1C)[C@H]1CC[C@H](N(C)C)CC1 [Compound 9, 5-chloro-N-((2,7-dimethyl-5-oxo-3,5-dihydro-[1,2,4]triazolo[1,5-a]pyridin-6-yl)methyl)-3-(((trans)-4-(dimethylamino)cyclohexyl)(ethyl)amino)-2-methylbenzamide] | 34.5 µM | 11500 nM
6 | CCN(c1cc(Cl)cc(C(=O)NCc2cn(C)[nH]c2=O)c1C)[C@H]1CC[C@H](N(C)C)CC1 [Compound 31a, 5-chloro-3-(ethyl((trans)-4-(dimethylamino)cyclohexyl]amino)-2-methyl-N-((1-methyl-3-oxo-2,3-dihydro-1H-pyrazol-4-yl)methyl]benzamide formate] | 0.505 µM | 230 nM
7 | CCN(c1cc(Cl)cc(C(=O)NCc2c(SC)n(C)[nH]c2=O)c1C)[C@H]1CC[C@H](N(C)C)CC1 [Compound 31b, 5-chloro-3-{ethyl[(trans)-4-(dimethylamino)cyclohexyl]amino}-2-methyl-N-{[1-methyl-5-(methylsulfanyl)-3-oxo-2,3-dihydro-1H-pyrazol-4-yl]methyl}benzamide Formate] | 1.24 µM | 1070 nM
8 | CCN(c1cc(Cl)cc(C(=O)NCc2c(C)[nH]n(C(C)C)c2=O)c1C)[C@H]1CC[C@H](N(C)C)CC1 [Compound 37, 5-chloro-3-(((trans)-4-(dimethylamino)cyclohexyl)(ethyl)amino)-N-((2-isopropyl-5-methyl-3-oxo-2,3-dihydro-1H-pyrazol-4-yl)methyl)-2-methylbenzamide] | 15.6 µM | 2660 nM
9 | CCN(c1cc(Cl)cc(C(=O)NCc2c(C(C)C)[nH]n(C)c2=O)c1C)[C@H]1CC[C@H](N(C)C)CC1 [Compound 39, 5-chloro-3-(((trans)-4-(dimethylamino)cyclohexyl)(ethyl)amino)-N-((5-isopropyl-2-methyl-3-oxo-2,3-dihydro-1H-pyrazol-4-yl)methyl)-2-methylbenzamide] | 6.58 µM | 2230 nM
10 | CCCCc1[nH]n(C)c(=O)c1CNC(=O)c1cc(Cl)cc(N(CC)[C@H]2CC[C@H](N(C)C)CC2)c1C [Compound 40, N-((5-butyl-2-methyl-3-oxo-2,3-dihydro-1H-pyrazol-4-yl)methyl)-5-chloro-3-(((trans)-4-(dimethylamino)cyclohexyl)(ethyl)amino)-2-methylbenzamide] | 0.689 µM | 166 nM
11 | CCN(c1cc(Cl)cc(C(=O)NCc2c(OC)nn3c(C)cc(C)nc23)c1C)[C@H]1CC[C@H](N(C)C)CC1 [Compound 48, 5-chloro-3-(((trans)-4-(dimethylamino)cyclohexyl)(ethyl)amino)-N-((2-methoxy-5,7-dimethylpyrazolo[1,5-a]pyrimidin-3-yl)methyl)-2-methylbenzamide] | > 50 µM | > 50000 nM
12 | CCN(c1cc(Cl)cc(C(=O)NCc2c(=O)[nH]n3c(C)cc(C)nc23)c1C)[C@H]1CC[C@H](N(C)C)CC1 [Compound 49, 5-chloro-N-((5,7-dimethyl-2-oxo-1,2-dihydropyrazolo[1,5-a]pyrimidin-3-yl)methyl)-3-(((trans)-4-(dimethylamino)cyclohexyl)(ethyl)amino)-2-methylbenzamide] | 10.4 µM | 5160 nM
13 | CCN(c1cc(Cl)cc(C(=O)NCc2c(OC)nn3cccnc23)c1C)[C@H]1CC[C@H](N(C)C)CC1 [Compound 50, 5-chloro-3-(((trans)-4(dimethylamino)cyclohexyl)(ethyl)amino)-N-((2-methoxypyrazolo[1,5-a]pyrimidin-3-yl)methyl)-2-methylbenzamide] | 27.6 µM | 2710 nM
14 | CCN(c1cc(-c2ccc(CN3CCOCC3)cc2)cc(C(=O)NCc2c(OC)nn(C)c2C)c1C)[C@H]1CC[C@H](N(C)C)CC1 [Compound 53, 5-(((trans)-4-(dimethylamino)cyclohexyl) (ethyl)amino)-N-((3-methoxy-1,5-dimethyl-1H-pyrazol-4-yl)methyl)-4-methyl-4′-(morpholinomethyl)-[1,1′-biphenyl]-3-carboxamide] | 2.18 µM | 625 nM
15 | CCn1nc(OC)c(CNC(=O)c2cc(Cl)cc(N(CC)[C@H]3CC[C@H](N(C)CCOC)CC3)c2C)c1C [Compound 64, 5-chloro-3-(ethyl ((trans)-4-((2-methoxyethyl)-(methyl)-amino)-cyclohexyl)amino)-N-((1-ethyl-3-methoxy-5-methyl-1H-pyrazol-4-yl)methyl)-2-methylbenzamide] | 17.5 µM | 4480 nM
16 | CCn1[nH]c(=O)c(CNC(=O)c2cc(Cl)cc(N(CC)[C@H]3CC[C@H](N(C)CCOC)CC3)c2C)c1C [Compound 65, 5-chloro-3-(ethyl((trans)-4-((2-methoxyethyl)-(methyl)-amino)-cyclohexyl)-amino)-N-((1-ethyl-5-methyl-3-oxo-2,3-dihydro-1H-pyrazol-4-yl)methyl)-2-methylbenzamide] | 1.14 µM | 442 nM
17 | CCN(c1cc(Cl)cc(C(=O)NCc2c(OC)nn(C)c2C)c1C)[C@H]1CC[C@H](N(C)Cc2cccnc2)CC1 [Compound 66, 5-chloro-3-(ethyl((trans)-4-(methyl(pyridin-3-ylmethyl)amino)cyclohexyl)amino)-N-((3-methoxy-1,5-dimethyl-1H-pyrazol-4-yl)methyl)-2-methylbenzamide] | 10.2 µM | 2340 nM
18 | CCN(c1cc(Cl)cc(C(=O)NCc2c(OC)nn(C)c2C)c1C)[C@H]1CC[C@H](N(C)Cc2cccc(OCCOC)c2)CC1 [Compound 68, 5-chloro-3-(ethyl((trans)-4-((3-(2-methoxyethoxy)benzyl)(methyl)amino)cyclohexyl)amino)-N-((3-methoxy-1,5-dimethyl-1H-pyrazol-4-yl)methyl)-2-methylbenzamide] | 2.59 µM | 
